In patent US4791215A, “Derivatives of glutamic acid and aspartic acid” (priority 1984, dated 1988):

What was measured:
[1] = test system: pancreatic adenocarcinoma; type: in vivo, hamsters
Description: (§1) The anti-cholecystokinin effect of the most powerful of the compounds which are the subject of the present invention, that is the compound C-7, on the trophic activity of CCK on normal pancreatic cells and on those of a pancreatic adenocarcinoma is to be studied.
(§2) Male hamsters were inoculated in the cheek pouches with a suspension of 1×10^5 tumoral cells of a pancreatic adenocarcinoma. Five days after the inoculation the animals were divided at random into 4 groups of 10 animals each, that is, a control group, a group of animals treated with 10 μg/kg of CCK-8 three times a day, a group of animals treated with 5 mg/kg i.p. of compound C-7 three times a day, and a fourth group treated simultaneously with the compound C-7 and CCK-8 in the manner described above.
(§3) After 15 days of this treatment, the animals were killed, and the normal pancreas and the inoculated pancreatic tumours in the cheek pouches were collected and weighed. The DNA was extracted and measured according to conventional techniques.
(§4) The results thus obtained are given in Table 13, expressed as mean values (±S.E.)

normal pancreatic cells = experiment: Trophic action of CCK-8 on normal pancreas; type: in vivo, hamsters; conditions: CCK-8 10 mcg/kg 3 times per day
Description: as §1, §2, §3, §4

[2] = CCK-8 10 mcg/kg 3 times per day

Substance: CCK-8: the biologically active component of the cholecystokinin hormone [reference compound]
- TUMORAL DNA [1, 2]: 0.7 ± 0.13 mg
- Weight of Pancreatic Carcinoma [1, 2]: 180 ± 15.2 mg
- animals died during the treatment ([1]; CCK-8 10 mcg/kg 3 times per day, of 10): 2 animals
- effect on growth of pancreatic adenocarcinoma / CCK-8 actions ([1]; hamster, in vivo): stimulates the growth of a pancreatic adenocarcinoma
- Pancreas weight (normal pancreatic cells): 600 ± 54.1 mg
- Pancreatic DNA (normal pancreatic cells): 1.5 ± 0.11 mg
